# ChEMBL document CHEMBL5465560, “Selectivity Literature for EUbOPEN Chemogenomic Library” (2024)
# Experiments:
# [1] = molecular target: T1, Histone-lysine N-methyltransferase EHMT1 (Homo sapiens) (UniProt Q9H9B1); assay: Selectivity interaction (Methyltransferase screen (radiometric assays, panel of 8 PRMTs, 21 protein lysine methyltransferases, 3 DNA methyltransferases, and one RNA methyltransferase)) EUB0000271b EHMT1
# T1 sequence (whole entry): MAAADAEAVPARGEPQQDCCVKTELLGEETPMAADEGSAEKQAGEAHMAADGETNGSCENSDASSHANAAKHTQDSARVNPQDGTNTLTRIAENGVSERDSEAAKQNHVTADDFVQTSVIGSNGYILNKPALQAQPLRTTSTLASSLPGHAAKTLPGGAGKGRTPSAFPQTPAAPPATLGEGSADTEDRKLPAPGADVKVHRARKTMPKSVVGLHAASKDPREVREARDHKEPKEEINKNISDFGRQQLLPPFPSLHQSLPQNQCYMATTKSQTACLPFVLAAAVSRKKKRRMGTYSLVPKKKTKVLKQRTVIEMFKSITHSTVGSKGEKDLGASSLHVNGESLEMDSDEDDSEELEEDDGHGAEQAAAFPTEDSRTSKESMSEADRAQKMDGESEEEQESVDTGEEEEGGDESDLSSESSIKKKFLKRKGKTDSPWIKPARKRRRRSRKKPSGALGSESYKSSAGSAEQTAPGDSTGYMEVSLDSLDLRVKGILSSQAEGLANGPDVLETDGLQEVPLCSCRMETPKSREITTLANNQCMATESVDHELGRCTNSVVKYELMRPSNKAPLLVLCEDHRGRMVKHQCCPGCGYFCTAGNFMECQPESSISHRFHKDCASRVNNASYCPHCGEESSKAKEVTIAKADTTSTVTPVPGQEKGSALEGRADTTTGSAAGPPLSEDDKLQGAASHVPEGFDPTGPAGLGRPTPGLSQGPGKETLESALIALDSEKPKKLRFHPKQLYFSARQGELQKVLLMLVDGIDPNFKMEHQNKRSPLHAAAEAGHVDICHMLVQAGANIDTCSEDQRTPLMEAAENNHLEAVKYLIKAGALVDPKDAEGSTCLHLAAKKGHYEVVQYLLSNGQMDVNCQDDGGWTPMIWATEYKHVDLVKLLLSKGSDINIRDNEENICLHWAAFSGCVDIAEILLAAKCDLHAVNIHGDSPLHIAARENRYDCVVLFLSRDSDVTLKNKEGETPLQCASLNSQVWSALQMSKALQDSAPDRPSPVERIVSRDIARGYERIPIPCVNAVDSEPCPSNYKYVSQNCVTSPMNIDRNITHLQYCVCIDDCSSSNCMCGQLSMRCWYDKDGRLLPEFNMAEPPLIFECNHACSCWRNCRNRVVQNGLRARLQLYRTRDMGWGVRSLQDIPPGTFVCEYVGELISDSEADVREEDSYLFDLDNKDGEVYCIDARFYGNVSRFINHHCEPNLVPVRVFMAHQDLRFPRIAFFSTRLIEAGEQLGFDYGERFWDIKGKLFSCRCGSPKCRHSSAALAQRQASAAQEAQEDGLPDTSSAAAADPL
# [2] = molecular target: T2, Ephrin type-B receptor 4 (Homo sapiens) (UniProt P54760); assay: Selectivity interaction (KinomeScan (DiscoverX)) EUB0000618a EPHB4; conditions: at 10 µM
# T2 sequence (whole entry): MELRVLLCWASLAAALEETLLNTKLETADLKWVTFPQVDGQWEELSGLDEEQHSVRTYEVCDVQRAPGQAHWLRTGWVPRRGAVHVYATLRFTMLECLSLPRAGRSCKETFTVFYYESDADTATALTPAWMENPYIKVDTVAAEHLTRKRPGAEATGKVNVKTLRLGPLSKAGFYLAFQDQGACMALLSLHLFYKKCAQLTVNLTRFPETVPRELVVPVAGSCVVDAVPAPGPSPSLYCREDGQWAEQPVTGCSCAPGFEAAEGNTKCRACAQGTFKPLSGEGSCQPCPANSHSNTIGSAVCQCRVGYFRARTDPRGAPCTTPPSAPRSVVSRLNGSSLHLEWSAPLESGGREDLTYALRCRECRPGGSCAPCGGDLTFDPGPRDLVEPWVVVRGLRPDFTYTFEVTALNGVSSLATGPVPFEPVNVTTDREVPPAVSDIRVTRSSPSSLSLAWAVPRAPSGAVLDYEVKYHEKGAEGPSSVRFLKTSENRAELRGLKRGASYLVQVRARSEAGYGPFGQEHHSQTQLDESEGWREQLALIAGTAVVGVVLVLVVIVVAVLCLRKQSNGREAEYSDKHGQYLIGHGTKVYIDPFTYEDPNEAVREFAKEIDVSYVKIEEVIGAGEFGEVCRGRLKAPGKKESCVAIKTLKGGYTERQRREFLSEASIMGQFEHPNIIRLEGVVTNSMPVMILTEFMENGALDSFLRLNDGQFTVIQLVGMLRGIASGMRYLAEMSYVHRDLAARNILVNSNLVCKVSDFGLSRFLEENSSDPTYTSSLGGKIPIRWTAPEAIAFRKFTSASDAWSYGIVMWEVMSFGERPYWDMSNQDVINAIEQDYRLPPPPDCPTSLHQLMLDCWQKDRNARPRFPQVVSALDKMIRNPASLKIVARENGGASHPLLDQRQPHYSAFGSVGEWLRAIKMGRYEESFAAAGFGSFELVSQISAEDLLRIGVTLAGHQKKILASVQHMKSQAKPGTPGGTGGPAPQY
# [3] = molecular target: Serine/threonine-protein kinase tousled-like 2 (Homo sapiens) (UniProt Q86UE8); assay: Selectivity interaction (ActivX KiNativ screen (kinase selectivity in THP-1 cell lysates)) EUB0000639a TLK2; type: subcellular; conditions: lysate, at 0.01 µM
# [4] = molecular target: Glycogen synthase kinase-3 beta (Homo sapiens, UniProt P49841); assay: Selectivity interaction (KinomeScan (DiscoverX)) EUB0000229b GSK3B; conditions: at 10 µM
# [5] = molecular target: T3, Dual specificity mitogen-activated protein kinase kinase 6 (Homo sapiens) (UniProt P52564); assay: Selectivity interaction (KinomeScan (DiscoverX)) EUB0000092b MAP2K6; conditions: at 10 µM
# T3 sequence (whole entry): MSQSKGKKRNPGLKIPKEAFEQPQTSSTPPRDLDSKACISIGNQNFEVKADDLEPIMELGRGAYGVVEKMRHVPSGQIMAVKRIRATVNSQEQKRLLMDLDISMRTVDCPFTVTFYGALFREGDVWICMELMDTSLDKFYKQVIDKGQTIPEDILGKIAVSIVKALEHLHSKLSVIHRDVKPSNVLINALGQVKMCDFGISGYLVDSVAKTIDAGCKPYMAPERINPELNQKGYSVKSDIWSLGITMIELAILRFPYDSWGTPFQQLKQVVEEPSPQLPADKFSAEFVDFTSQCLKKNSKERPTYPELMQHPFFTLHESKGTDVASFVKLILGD
# Sequence of Glycogen synthase kinase-3 beta (P49841 whole entry, looked up): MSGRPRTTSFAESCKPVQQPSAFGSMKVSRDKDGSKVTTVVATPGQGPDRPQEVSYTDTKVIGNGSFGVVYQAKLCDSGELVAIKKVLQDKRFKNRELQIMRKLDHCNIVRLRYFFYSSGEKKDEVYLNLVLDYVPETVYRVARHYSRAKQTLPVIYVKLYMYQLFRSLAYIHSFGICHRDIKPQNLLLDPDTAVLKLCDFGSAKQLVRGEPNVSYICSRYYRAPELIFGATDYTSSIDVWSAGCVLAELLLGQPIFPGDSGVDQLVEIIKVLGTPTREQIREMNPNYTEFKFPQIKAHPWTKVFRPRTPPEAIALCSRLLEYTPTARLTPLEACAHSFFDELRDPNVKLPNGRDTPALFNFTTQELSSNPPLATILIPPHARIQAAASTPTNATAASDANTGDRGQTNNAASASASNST
# Sequence of Serine/threonine-protein kinase tousled-like 2 (Homo sapiens) (Q86UE8 whole entry, looked up): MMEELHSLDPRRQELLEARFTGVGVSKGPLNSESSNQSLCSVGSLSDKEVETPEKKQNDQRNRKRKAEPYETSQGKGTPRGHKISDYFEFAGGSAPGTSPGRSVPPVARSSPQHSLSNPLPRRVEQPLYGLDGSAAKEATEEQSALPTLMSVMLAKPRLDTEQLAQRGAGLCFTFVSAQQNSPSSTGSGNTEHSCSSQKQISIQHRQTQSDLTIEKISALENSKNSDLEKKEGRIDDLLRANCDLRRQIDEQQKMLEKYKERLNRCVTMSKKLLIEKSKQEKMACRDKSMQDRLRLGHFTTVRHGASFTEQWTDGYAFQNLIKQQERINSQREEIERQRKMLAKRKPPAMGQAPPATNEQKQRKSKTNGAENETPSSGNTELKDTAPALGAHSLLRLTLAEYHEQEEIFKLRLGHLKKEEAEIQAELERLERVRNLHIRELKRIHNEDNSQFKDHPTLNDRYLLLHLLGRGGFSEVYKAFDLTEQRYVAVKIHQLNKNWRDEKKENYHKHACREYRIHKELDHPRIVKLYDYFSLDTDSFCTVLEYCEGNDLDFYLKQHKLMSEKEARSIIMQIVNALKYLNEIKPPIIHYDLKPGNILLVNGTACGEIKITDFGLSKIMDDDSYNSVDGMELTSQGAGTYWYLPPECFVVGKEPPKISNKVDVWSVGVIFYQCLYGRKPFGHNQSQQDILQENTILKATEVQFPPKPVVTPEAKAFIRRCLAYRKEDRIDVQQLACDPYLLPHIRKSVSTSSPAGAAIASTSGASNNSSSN
smiles,measurement,setting,value
Cc1cc(C)cc([C@@H]2c3cc(C)ccc3NC(=O)CN2C(=O)c2ccc(Br)s2)c1,% of activity,[1]; at 1 µM,99%
same,% of activity,[1]; at 10 µM,99%
O[C@H]1CC[C@H](Nc2ncc3nc(Nc4c(F)cc(F)cc4F)n([C@H]4CCOC4)c3n2)CC1,% of control,[2],100%
CC[C@@H]1[C@H](F)C(=O)N[C@@H]1COc1nccc2cc(C(N)=O)c(OC)cc12 [ZIMLOVISERTIB],% of inhibition,[3],0.7%
COc1cc(N(C)c2ccnc3ccc(C(F)(F)F)cc23)cc(OC)c1OC,% binding,[4],81%
CCC(=O)N1CCN(c2ccc(-n3c(=O)ccc4cnc5ccc(-c6cnc7ccccc7c6)cc5c43)cc2C(F)(F)F)CC1,% of control,[5],100%
